Entries after “also recorded” stand apart in the source; their conditions may differ. Marks after values point to notes of the source that are not given here.
B1: human OAT4 (Homo sapiens) (protein)
chain: MAFSKLLEQAGGVGLFQTLQVLTFILPCLMIPSQMLLENFSAAIPGHRCWTHMLDNGSAVSTNMTPKALLTISIPPGPNQGPHQCRRFRQPQWQLLDPNATATSWSEADTEPCVDGWVYDRSVFTSTIVAKWDLVCSSQGLKPLSQSIFMSGILVGSFIWGLLSYRFGRKPMLSWCCLQLAVAGTSTIFAPTFVIYCGLRFVAAFGMAGIFLSSLTLMVEWTTTSRRAVTMTVVGCAFSAGQAALGGLAFALRDWRTLQLAASVPFFAISLISWWLPESARWLIIKGKPDQALQELRKVARINGHKEAKNLTIEVLMSSVKEEVASAKEPRSVLDLFCVPVLRWRSCAMLVVNFSLLISYYGLVFDLQSLGRDIFLLQALFGAVDFLGRATTALLLSFLGRRTIQAGSQAMAGLAILANMLVPQDLQTLRVVFAVLGKGCFGISLTCLTIYKAELFPTPVRMTADGILHTVGRLGAMMGPLILMSRQALPLLPPLLYGVISIASSLVVLFFLPETQGLPLPDTIQDLESQKSTAAQGNRQEAVTVESTSL
notes: expressed in transfected cells; host or cells: HEK293 cells transduced with recombinant baculovirus (CMV promoter)

Assays:
human OAT4 [1] = target: T1, human OAT4 (Homo sapiens, UniProt Q9NSA0); test: Screening of cellular PFAS accumulation in OAT4-transfected vs control-transfected HEK293 cells (PFAS mixture); assay type: cell-based; conditions: for Transport by OAT4 (cellular PFAS level in OAT4-transfected vs control-transfected cells; substantial = at least twofold higher): PFAS mixture, each 1 µM, 10 min; for OAT4 substrate: yes/no as identified in vitro in this study
T1 construct: expressed in transfected cells; host or cells: HEK293 cells transduced with recombinant baculovirus (CMV promoter)
T1 sequence (Q9NSA0 1-550): B1 chain
Description: (§1) The recombinant baculoviruses that contain the cDNA of human transporters OAT4 and URAT1 downstream of a cytomegalovirus (CMV) promotor were generated as previously described (Smeets et al. [2020]). As a negative control, baculovirus containing the gene for enhanced yellow fluorescence protein (eYFP) was produced similarly. Moreover, transduction of HEK293 cells and uptake assays were essentially performed as previously described (Smeets et al. [2020]). The culture medium was removed and cells were washed with buffer (HBSS plus 10 mM HEPES, pH 7.4). Uptake was initiated by replacing this solution with 150 µL of fresh transport buffer (HBSS (Life Technologies Invitrogen (Carlsbad, CA, USA))-HEPES (Sigma-Aldrich), pH 7.4) supplemented with the PFASs for 10 min. To terminate the reaction, transport buffer was replaced with 400 µL ice-cold HBSS-HEPES buffer containing 0.5% BSA (m/v; Roche Diagnostics GmbH (Mannheim, Germany)), after which the cells were washed twice with ice-cold HBSS-HEPES. Cellular PFAS concentrations were determined based on the method described by Rosenmai et al. ([2018]). Briefly, cells were solubilised in 250 µL lysis buffer and cell lysates were stored in Eppendorf tubes at − 80 °C and defrozen when needed for LC–MS analysis and for quantification of the protein concentration.
(§2) To 50 μL cell lysate, 850 μL methanol (Actu-All Chemicals, Oss, The Netherlands) containing internal standards (^13C4-PFHpA, ^13C4-PFOA, ^13C5-PFNA, ^13C2-PFDA, ^13C3-PFBS, ^18O2-PFHxS and ^13C4-PFOS (Wellington Laboratories, Canada) was added. These dilutions were vortexed well before centrifugation at maximum speed for 10 min at 4 °C. PFAS concentrations in the supernatant were determined using LC–MS/MS analysis. If required, samples were further diluted with methanol and containing internal standards. LC–MS/MS analysis was based on a Shimadzu UHPLC system containing: 2 pumps (LC 20AD xr); column oven (Shimadzu CTO-20AC); pump switch (Shimadzu FCV-11AL); degasser (Shimadzu DGU-20A3); and sample tray holder (Shimadzu SIL-20 AC XR model) (Shimadzu Corporation, Kyoto, Japan). An Acquity BEH-C18 analytical column (50 × 2.1 mm i.d., 1.7 μm, Waters, Milford, MA, USA) was used to separate the PFASs at a column temperature of 35 °C. In addition, a symmetry C18 analytical column (50 × 2.1 mm i.d., 5 µm, Waters, Milford, MA, USA) was used as a guard column, placed between the pump and the injector valve to isolate and delay interferences out of the LC system. The mobile phase consisted of 2 mM ammonium acetate (Merck Millipore, Darmstadt, Germany) in Milli-Q water (prepared using a Milli-Q system with a resistivity of at least 18.2 MΩ cm^−1 (Merck Millipore)) (mobile phase A) and Acetonitrile ULC/MS grade (Actu-All Chemicals, Oss, The Netherlands) (mobile phase B). The injection volume used was 20 μL. The chromatographic gradient was operated at a flow rate of 0.3 mL min^−1 starting from 25% mobile phase B in the first 0.1 min, a linear increase to 100% B in 6 min with a final hold of 2.5 min. The gradient was returned to 25% B within 0.1 min for 3.9 min to equilibrate before the next injection, resulting in a total run of 12.5 min.
(§3) Cellular PFAS content was normalised to cellular protein. To that end, from each cell lysate, 25 µL was used to determine the protein concentration (technical duplicate) using the Pierce BCA Protein Assay Kit (Thermo Scientific, Waltham, MA). First, samples were diluted two times with lysis buffer directly in a 96-wells plate (PS, F-bottom, clear; Greiner Bio-One, Alphen aan de Rijn, The Netherlands), and in each plate, a BSA standard curve (0.05–2 mg mL^−1 in lysis buffer) was included allowing protein quantification of the samples. The manufacturer’s protocol was followed for the subsequent steps and absorbance was measured using a microplate reader (Synergy™ HT BioTek, Winooski, VT) at 562 nm. […]

human URAT1 = target: T2, human URAT1 (Homo sapiens, UniProt Q96S37); test: Screening of cellular PFAS accumulation in URAT1-transfected vs control-transfected HEK293 cells (PFAS mixture); assay type: cell-based; conditions: yes/no as identified in vitro in this study
T2 construct: expressed in transfected cells; host or cells: HEK293 cells transduced with recombinant baculovirus (CMV promoter)
T2 sequence (Q96S37 1-553): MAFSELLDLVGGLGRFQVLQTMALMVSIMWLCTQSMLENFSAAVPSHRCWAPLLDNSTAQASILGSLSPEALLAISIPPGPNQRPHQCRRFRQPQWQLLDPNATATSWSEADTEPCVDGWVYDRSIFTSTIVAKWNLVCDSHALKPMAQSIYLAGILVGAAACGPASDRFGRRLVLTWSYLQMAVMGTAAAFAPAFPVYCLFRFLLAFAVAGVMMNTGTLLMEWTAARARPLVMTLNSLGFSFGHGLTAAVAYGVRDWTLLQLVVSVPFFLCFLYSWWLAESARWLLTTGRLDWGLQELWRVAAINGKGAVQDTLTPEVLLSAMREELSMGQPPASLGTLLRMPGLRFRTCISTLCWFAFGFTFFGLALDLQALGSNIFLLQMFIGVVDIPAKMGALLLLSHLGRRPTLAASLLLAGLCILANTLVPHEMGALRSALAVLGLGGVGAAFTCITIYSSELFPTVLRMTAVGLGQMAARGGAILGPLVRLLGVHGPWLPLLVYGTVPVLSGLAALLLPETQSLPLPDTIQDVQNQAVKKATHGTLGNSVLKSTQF
Description: as §1, §2, §3

[2] = cited from earlier work; for Reported half-life in humans: (average) serum half-life, ref Xu et al. (2020) for PFHpA, Olsen et al. (2007), Li et al. (2018), Xu et al. (2020) for PFOA, PFHxS, PFOS, Olsen et al. (2009) for PFBS; for Reported (average) serum half-life in humans: ref Olsen et al. (2009) for PFBS, Xu et al. (2020) for PFHpA
human OAT4 [3] = target: T1, human OAT4; test: OAT4-mediated cellular uptake kinetics (Michaelis–Menten) in OAT4-transfected vs control-transfected HEK293 cells; assay type: cell-based; conditions: OAT4-transfected minus control-transfected HEK293 cells, 1 min exposure, 1-300 µM; best-fit value (standard error)
Description: (§4) OAT4- and control-transfected cells were exposed for 1 min to a range of PFAS concentrations (1, 3, 10, 30, 100 and 300 µM) and cellular amounts were determined.
(§5) OAT4-transfected cells and control-transfected cells were exposed for 1 min to a range of PFAS concentrations and cellular amounts were determined. Amounts obtained in control-transfected cells were subtracted from amounts obtained in OAT4-transfected cells to obtain OAT4-mediated cellular uptake rates.

albumin = conditions: cited from earlier work; for Reported albumin/water partition coefficients: ref Allendorf et al. (2019)
[4] = substrate: O=C(O)C(F)(F)C(F)(F)C(F)(F)C(F)(F)C(F)(F)C(F)(F)C(F)(F)C(F)(F)C(F)(F)F; test: cells, lysate or membranes; conditions: other: OAT4-transfected minus control-transfected HEK293 cells, 1 min exposure, 1-300 µM; best-fit value (standard error); pH 7.4
[5] = substrate: O=C(O)C(F)(F)C(F)(F)C(F)(F)C(F)(F)C(F)(F)C(F)(F)C(F)(F)C(F)(F)F; test: cells, lysate or membranes; conditions: other: OAT4-transfected minus control-transfected HEK293 cells, 1 min exposure, 1-300 µM; best-fit value (standard error); pH 7.4
[6] = substrate: O=S(=O)(O)C(F)(F)C(F)(F)C(F)(F)C(F)(F)C(F)(F)C(F)(F)C(F)(F)C(F)(F)F; test: cells, lysate or membranes; conditions: other: OAT4-transfected minus control-transfected HEK293 cells, 1 min exposure, 1-300 µM; best-fit value (standard error); pH 7.4
[7] = substrate: O=C(O)C(F)(F)C(F)(F)C(F)(F)C(F)(F)C(F)(F)C(F)(F)C(F)(F)F; test: OAT4-mediated cellular uptake kinetics (Michaelis–Menten) in OAT4-transfected vs control-transfected HEK293 cells; assay type: cell-based, human; conditions: other: OAT4-transfected minus control-transfected HEK293 cells, 1 min exposure, 1-300 µM; best-fit value (standard error); pH 7.4
Description: as §4, §5

[8] = substrate: O=C(O)C(F)(F)C(F)(F)C(F)(F)C(F)(F)C(F)(F)C(F)(F)F; test: as above; assay type: cell-based, human; conditions: other: OAT4-transfected minus control-transfected HEK293 cells, 1 min exposure, 1-300 µM; best-fit value (standard error); pH 7.4
Description: as §4, §5

[9] = substrate: O=S(=O)(O)C(F)(F)C(F)(F)C(F)(F)C(F)(F)C(F)(F)C(F)(F)F; test: as above; assay type: cell-based, human; conditions: other: OAT4-transfected minus control-transfected HEK293 cells, 1 min exposure, 1-300 µM; best-fit value (standard error); pH 7.4
Description: as §4, §5

Row | Molecule | Transport by OAT4 (cellular PFAS level in OAT4-transfected vs control-transfected cells; substantial = at least twofold higher) (human OAT4 [1]) | OAT4 substrate (human OAT4 [1]) | URAT1 substrate (human URAT1) | Reported half-life in humans [2] | Reported albumin/water partition coefficients (albumin) | Reported (average) serum half-life in humans [2] | other results
1 | O=S(=O)(O)C(F)(F)C(F)(F)C(F)(F)C(F)(F)C(F)(F)C(F)(F)F [PFHxS, Perfluorohexane sulfonate] | substantial transport; also recorded: more than twofold increase | Yes | No | 2.9–8.5^c years | – | – | –
2 | O=C(O)C(F)(F)C(F)(F)C(F)(F)C(F)(F)C(F)(F)C(F)(F)C(F)(F)C(F)(F)F [PFNA, perfluorononanoic acid] | substantial transport; also recorded: more than twofold increase | Yes | No | – | 4.3 L/kg | – | Apparent Vmax (human OAT4 [3]): 8.5 nmol min^−1 mg protein^−1
3 | O=C(O)C(F)(F)C(F)(F)C(F)(F)C(F)(F)C(F)(F)C(F)(F)F [PFHpA, Perfluoroheptanoic acid] | substantial transport; also recorded: more than twofold increase | Yes | No | 0.17^b years | 4.0 L/kg | 62 days | –
4 | O=S(=O)(O)C(F)(F)C(F)(F)C(F)(F)C(F)(F)F [PFBS, perfluorobutane sulfonate] | rather limited; also recorded: limited transport | No | No | 0.07–0.12^d years | – | 26 to 44 days | Binding to albumin (albumin; compared to the other PFASs, ref Allendorf et al. 2019, Gao et al. 2019, Lu et al. 2021): relatively low binding to albumin
5 | O=C(O)C(F)(F)C(F)(F)C(F)(F)C(F)(F)C(F)(F)C(F)(F)C(F)(F)C(F)(F)C(F)(F)F [PFDA, perfluorodecanoic acid] | substantial transport; also recorded: more than twofold increase | Yes | No | – | 4.7 L/kg | – | –
6 | B1 | – | – | – | – | – | – | Km [4]: 39 (15) µM; Vmax [4]: 0.006 µmol/min/mg; Vmax/Km [4]: 154 µL min^−1 mg protein^−1; Km [5]: 58 (15) µM; Vmax [5]: 0.0085 µmol/min/mg; Vmax/Km [5]: 147 µL min^−1 mg protein^−1; Km [6]: 48 (24) µM; Vmax [6]: 0.0022 µmol/min/mg; Vmax/Km [6]: 46 µL min^−1 mg protein^−1; Km [7]: 47 (15) µM; Vmax [7]: 0.0045 µmol/min/mg; Vmax/Km [7]: 96 µL min^−1 mg protein^−1; Km [8]: 60 (15) µM; Vmax [8]: 0.0045 µmol/min/mg; Vmax/Km [8]: 75 µL min^−1 mg protein^−1; Km [9]: 92 (33) µM; Vmax [9]: 0.0073 µmol/min/mg; Vmax/Km [9]: 79 µL min^−1 mg protein^−1
